{"source": "patent US20040009207A1", "about": "“Medicinal beverage containing molecular oxygen” (priority 2000, published 2004)", "origin": "cited, not measured here", "note": "Like-named read-outs stand apart in the source and are kept apart here.", "data": [{"smiles": "O=O", "note": "[O2, molecular oxygen]", "values": [{"measurement": "solubility of O2 in one litre water", "setting": "0° C.", "value": 0.0491, "unit": "L"}, {"measurement": "solubility of O2 in one litre water", "setting": "50° C.", "value": 0.0209, "unit": "L"}]}]}
